In one data set the target is rhesus monkey PXR (oPXR) (Macaca mulatta, UniProt Q8SQ01). The data set is described as follows: Rhesus monkey PXR luciferase reporter assay. The format is cell-based. The note with it: rifampicin as prototypical inducer. Here is the method: The CYP3A4 gene promoter luciferase reporter construct (p3A4-luc) bears a distal XREM (−7836/–7208) and a proximal promoter sequence (prPXRE, −362/+53) from the CYP3A4 gene promoter region. […] The human PXR expression vector (variant 1, NM_003889.3) as well as vectors for mouse, rat, and monkey orthologues were described in our recent paper (39). […] Rhesus monkey, mouse, and rat PXR expression vectors (100 ng/well each) were also obtained from GenScript. […] Carlberg (University of Kuopio, Kuopio, Finland).
rhesus monkey PXR (oPXR), sequence (Q8SQ01 whole entry): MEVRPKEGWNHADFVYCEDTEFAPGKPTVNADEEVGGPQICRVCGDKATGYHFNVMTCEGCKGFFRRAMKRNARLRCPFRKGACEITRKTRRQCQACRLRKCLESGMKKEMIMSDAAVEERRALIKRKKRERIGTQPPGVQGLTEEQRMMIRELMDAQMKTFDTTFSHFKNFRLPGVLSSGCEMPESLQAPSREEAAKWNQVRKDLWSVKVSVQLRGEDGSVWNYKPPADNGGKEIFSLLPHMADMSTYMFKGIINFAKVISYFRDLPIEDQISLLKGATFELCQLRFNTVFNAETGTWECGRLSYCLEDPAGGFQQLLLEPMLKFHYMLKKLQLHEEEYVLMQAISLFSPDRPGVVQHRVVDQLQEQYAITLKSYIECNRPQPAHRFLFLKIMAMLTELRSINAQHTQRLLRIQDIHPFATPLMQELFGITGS
The cells were cultured in DMEM medium (Merck) supplemented with 10% fetal bovine serum.
In general terms: A reporter such as luciferase makes a cellular process visible.

The test system of data set [1] is primary human hepatocytes. Put plainly: RT-qPCR gene expression in primary human hepatocytes. The format is cell-based. To be noted: PHH, MI891 5 μM. As to the method: Cryopreserved human hepatocytes from three donors were purchased from BioIVT (Westbury, New York, USA). The characteristics of the donors were as follows: donor 1, donor 2, donor 3 - person. PHHs were seeded in PHH medium supplemented with 10% fetal bovine serum at a density of 350,000 cells per well of rat tail collagen type I-coated 24-well plates (catalog number 354408, Corning, New York, USA). Cultivation medium was replaced with serum-free PHH medium 2 h later. […] Rifampicin, SPA70, and dimethyl sulfoxide (DMSO) were all purchased from Sigma-Aldrich (St. Louis, Missouri, USA, now part of Merck).
RT-qPCR was utilized to investigate gene expression in HepaRG and PHH. Total RNA was extracted from these cells using the phenol–chloroform method. The concentration of the isolated RNA was then measured using a Nanodrop 1000 spectro-photometer (Thermo Fisher Scientific).
Following RNA isolation, reverse transcription was performed to convert RNA into complementary DNA (cDNA). This step was carried out using the High-capacity cDNA reverse transcription kit (Cat. No. 4374966, ThermoFisher Scientific). The resulting cDNA served as the template for subsequent qPCR reactions.
The qPCR reactions were conducted on the QuantStudio 6 Flex Real-Time PCR System (ThermoFisher Scientific, Waltham, Mas-sachusetts). For these reactions, TaqMan Universal master mix II (Cat. No. 4440047, ThermoFisher Scientific) and TaqMan assays (FAM) utilized in this study are detailed in the Supporting Information. To quantify gene expression, the cycle threshold (Ct) values of the target genes were normalized to the Ct values of reference genes HPRT1 or GAPDH (HepaRG) or TBP (PHH). The normalized values were then expressed as fold changes (2−ΔΔCt) relative to the DMSO control at the specified time points, with the control set as 1.
Background: In qPCR the cycle at which signal appears reflects the starting amount.

A further data set addresses T1, PPARγ (Homo sapiens, UniProt P37231).
T1 construct: expressed in transfected cells
Put plainly: PPARγ agonist reporter assay. The note with it: 10 µM MI891. The format is cell-based. Here is the method:
For the farnesoid X receptor (FXR) luciferase gene reporter assay, the full-length expression vector was paired with pFXRE-luc luciferase construct. The p1A1-luc construct was used in the aryl hydrocarbon receptor (AhR) assays with pRL-TK for normalization. Gal4-LXR-α/β, and Gal4-PPAR-γ constructs were used with the pGAL4 UAS-luc construct. For the VDR assay, expression vector pSG5-hVDR together with pVDRE-luc constructs was used. Firefly and Renilla luciferase activities were analyzed using a Dual reporter assay (Promega). For the nuclear receptor assays, prototype ligands were used at the following concentrations: Calcitriol for VDR (100 nM), GW3965 for LXRα and LXRβ (10 μM), 6-OCA for FXR (1 μM), fenofibrate for PPARα (10 μM), estradiol for ERα and β (10 μM), rosiglitazone for PPARγ (10 μM), 3-MC for AhR (5 μM), and TCPOBOP for mCAR (10 μM). Detailed descriptions and protocols are detailed in our recent publication. , […]
hydrophobic interactions. (F) Superimposed diagram of PXR bound with agonist (SJPYT-328) and antagonists (MI891 and SJPYT-331) to differentiate the agonist and antagonist interactions with helix 12 (H12). The interaction of the agonist with PXR residue (L428) is circled. (G) Extended nuclear receptor selectivity profile. […]

The target of another data set is T2, Plk3(h) (Homo sapiens, UniProt Q9H4B4).
T2 construct: purchased Eurofins (Millipore) KinaseProfiler, inferred from the naming style
Put plainly: Off-target kinase panel. The format is biochemical. To be noted: MI891 @ 1 µM. As to the method: (§1) To evaluate the selectivity of MI891, an off-target profiling study was performed using a panel of 58 kinases.

Another data set deals with T3, JAK2(h) (Homo sapiens, UniProt O60674).
T3 construct: purchased Eurofins (Millipore) KinaseProfiler, inferred from the naming style
The data set is described as follows: Off-target kinase panel. The note with it: MI891 @ 1 µM. The format is biochemical. Here is the method:
as §1

The target of the next data set is IGF-1R(h) (Homo sapiens, UniProt P08069). Put plainly: Off-target kinase panel. The format is biochemical. To be noted: MI891 @ 1 µM. Here is the method: as §1
IGF-1R(h), sequence (P08069 31-1367): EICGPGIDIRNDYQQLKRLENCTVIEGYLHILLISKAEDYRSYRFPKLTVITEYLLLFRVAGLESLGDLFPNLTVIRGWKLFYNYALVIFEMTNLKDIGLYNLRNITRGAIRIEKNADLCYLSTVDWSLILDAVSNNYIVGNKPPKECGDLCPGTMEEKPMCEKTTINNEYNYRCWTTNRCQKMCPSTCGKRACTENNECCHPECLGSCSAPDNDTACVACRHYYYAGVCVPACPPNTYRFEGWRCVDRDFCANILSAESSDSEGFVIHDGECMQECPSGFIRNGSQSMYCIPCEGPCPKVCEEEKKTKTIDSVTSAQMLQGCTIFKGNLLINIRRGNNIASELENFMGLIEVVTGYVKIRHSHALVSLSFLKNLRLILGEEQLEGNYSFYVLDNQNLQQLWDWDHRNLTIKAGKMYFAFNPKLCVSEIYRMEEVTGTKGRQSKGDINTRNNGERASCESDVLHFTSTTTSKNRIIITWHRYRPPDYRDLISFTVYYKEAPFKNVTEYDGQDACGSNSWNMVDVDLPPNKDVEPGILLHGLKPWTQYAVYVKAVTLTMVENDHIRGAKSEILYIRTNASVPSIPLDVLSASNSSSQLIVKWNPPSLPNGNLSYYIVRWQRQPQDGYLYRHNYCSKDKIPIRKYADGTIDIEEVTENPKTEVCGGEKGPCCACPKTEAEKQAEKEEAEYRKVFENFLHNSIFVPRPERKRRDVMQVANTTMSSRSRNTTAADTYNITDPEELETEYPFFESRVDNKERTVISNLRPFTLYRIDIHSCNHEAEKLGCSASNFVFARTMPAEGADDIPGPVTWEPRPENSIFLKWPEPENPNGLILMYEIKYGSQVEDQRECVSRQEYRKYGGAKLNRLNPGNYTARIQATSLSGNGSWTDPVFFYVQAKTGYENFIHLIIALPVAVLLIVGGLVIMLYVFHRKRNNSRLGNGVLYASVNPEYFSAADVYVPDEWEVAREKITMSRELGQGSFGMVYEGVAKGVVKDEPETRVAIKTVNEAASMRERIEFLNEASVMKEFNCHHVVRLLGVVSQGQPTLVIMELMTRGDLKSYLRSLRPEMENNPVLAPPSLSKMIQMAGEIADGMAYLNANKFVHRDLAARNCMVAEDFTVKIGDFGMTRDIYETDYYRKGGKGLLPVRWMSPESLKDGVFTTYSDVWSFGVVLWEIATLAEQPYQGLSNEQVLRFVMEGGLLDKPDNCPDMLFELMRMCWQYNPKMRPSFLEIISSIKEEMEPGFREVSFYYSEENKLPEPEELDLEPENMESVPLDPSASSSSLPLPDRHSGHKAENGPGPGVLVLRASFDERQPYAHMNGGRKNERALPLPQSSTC
A further data set has as its target T4, p70S6K(h) (Homo sapiens, UniProt P23443).
T4 construct: purchased Eurofins (Millipore) KinaseProfiler, inferred from the naming style
The data set is described as follows: Off-target kinase panel. The format is biochemical. The note with it: MI891 @ 1 µM. As to the method: as §1

A further data set concerns the target eEF-2K(h) (Homo sapiens, UniProt O00418). The data set is described as follows: Off-target kinase panel. The format is biochemical. The note with it: MI891 @ 1 µM. As to the method: as §1
The target of another data set is T5, SRPK1(h) (Homo sapiens, UniProt Q96SB4).
T5 construct: purchased Eurofins (Millipore) KinaseProfiler, inferred from the naming style
The data set is described as follows: Off-target kinase panel. The format is biochemical. The note with it: MI891 @ 1 µM. Here is the method:
as §1

A further data set has as its target GSK3β(h) (Homo sapiens, UniProt P49841). The data set is described as follows: Off-target kinase panel. The format is biochemical. To be noted: MI891 @ 1 µM. Here is the method: as §1
The target of a further data set is T6, Mnk2(h) (Homo sapiens, UniProt Q9HBH9).
T6 construct: purchased Eurofins (Millipore) KinaseProfiler, inferred from the naming style
T6 sequence (Q9HBH9 whole entry): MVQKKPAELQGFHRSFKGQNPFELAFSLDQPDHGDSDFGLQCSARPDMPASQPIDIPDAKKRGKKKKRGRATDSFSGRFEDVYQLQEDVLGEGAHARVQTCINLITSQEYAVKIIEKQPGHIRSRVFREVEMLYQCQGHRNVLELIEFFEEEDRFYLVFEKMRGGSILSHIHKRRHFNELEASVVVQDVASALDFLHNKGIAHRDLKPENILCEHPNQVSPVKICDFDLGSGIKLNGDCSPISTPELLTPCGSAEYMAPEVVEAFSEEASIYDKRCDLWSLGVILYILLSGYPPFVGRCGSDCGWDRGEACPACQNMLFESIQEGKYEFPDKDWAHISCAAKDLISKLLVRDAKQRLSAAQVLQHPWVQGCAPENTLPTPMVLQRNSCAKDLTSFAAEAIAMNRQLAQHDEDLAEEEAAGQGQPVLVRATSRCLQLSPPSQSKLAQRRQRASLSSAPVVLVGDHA
The data set is described as follows: Off-target kinase panel. The format is biochemical. To be noted: MI891 @ 1 µM. Here is the method: as §1

The target in another data set is T7, PI3 Kinase (p120g)(h) (Homo sapiens, UniProt P48736).
T7 construct: purchased Eurofins (Millipore) KinaseProfiler, inferred from the naming style
Put plainly: Off-target kinase panel. The format is biochemical. The note with it: MI891 @ 1 µM. As to the method:
as §1

For the next data set, the target named is DRAK1(h) (Homo sapiens, UniProt Q9UEE5). The data set is described as follows: Off-target kinase panel. To be noted: MI891 @ 1 µM. The format is biochemical. As to the method: as §1
DRAK1(h), sequence (Q9UEE5 whole entry): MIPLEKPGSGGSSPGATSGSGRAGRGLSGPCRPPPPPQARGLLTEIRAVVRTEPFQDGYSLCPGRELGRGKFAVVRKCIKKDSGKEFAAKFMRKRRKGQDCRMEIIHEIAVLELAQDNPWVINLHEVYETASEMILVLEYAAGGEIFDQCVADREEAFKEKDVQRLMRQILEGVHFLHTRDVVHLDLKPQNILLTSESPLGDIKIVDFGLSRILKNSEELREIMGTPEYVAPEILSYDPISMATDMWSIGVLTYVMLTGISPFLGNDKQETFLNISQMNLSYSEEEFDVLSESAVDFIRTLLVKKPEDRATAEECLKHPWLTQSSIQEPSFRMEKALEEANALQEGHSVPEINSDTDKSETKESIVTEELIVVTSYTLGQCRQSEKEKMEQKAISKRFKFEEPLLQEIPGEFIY
A further data set deals with T8, PKG1α(h) (Homo sapiens, UniProt Q13976).
T8 construct: purchased Eurofins (Millipore) KinaseProfiler, inferred from the naming style
T8 sequence (Q13976 whole entry): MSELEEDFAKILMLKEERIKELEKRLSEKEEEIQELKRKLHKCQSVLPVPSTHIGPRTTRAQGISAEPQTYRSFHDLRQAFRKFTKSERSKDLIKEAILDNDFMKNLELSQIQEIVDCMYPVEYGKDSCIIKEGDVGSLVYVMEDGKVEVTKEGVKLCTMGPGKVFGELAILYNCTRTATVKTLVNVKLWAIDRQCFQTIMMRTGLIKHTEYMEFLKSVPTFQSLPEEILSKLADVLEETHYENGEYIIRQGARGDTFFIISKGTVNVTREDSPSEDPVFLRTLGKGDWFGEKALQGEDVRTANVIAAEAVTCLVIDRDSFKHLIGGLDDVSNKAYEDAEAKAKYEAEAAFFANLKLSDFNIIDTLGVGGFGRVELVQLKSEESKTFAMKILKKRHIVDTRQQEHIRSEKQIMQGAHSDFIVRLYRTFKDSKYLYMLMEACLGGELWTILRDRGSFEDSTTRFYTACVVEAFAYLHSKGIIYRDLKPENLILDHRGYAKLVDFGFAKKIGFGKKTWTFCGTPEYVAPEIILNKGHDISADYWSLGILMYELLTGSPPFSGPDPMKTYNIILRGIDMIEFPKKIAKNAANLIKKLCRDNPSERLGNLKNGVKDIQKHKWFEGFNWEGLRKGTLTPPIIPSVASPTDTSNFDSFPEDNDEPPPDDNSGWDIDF
The data set is described as follows: Off-target kinase panel. The format is biochemical. To be noted: MI891 @ 1 µM. Here is the method:
as §1

A further data set concerns the target T9, MST1(h) (Homo sapiens, UniProt Q13043).
T9 construct: purchased Eurofins (Millipore) KinaseProfiler, inferred from the naming style
The data set is described as follows: Off-target kinase panel. The format is biochemical. The note with it: MI891 @ 1 µM. As to the method: as §1

T4 sequence (P23443 whole entry): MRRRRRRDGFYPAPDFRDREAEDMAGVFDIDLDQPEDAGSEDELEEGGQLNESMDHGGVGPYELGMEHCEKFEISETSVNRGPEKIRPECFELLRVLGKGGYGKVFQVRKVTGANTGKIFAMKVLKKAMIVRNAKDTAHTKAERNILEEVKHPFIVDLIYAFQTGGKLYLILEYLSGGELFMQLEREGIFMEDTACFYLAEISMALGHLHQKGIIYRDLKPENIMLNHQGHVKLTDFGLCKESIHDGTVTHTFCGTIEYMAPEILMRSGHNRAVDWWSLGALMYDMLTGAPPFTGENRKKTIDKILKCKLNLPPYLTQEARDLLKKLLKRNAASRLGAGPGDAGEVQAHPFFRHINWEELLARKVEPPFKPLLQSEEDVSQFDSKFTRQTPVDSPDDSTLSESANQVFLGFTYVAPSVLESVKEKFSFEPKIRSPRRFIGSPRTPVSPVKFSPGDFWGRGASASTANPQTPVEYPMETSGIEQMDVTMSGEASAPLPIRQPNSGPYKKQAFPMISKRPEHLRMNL
T1 sequence (P37231 238-505 limits assumed, species assumed): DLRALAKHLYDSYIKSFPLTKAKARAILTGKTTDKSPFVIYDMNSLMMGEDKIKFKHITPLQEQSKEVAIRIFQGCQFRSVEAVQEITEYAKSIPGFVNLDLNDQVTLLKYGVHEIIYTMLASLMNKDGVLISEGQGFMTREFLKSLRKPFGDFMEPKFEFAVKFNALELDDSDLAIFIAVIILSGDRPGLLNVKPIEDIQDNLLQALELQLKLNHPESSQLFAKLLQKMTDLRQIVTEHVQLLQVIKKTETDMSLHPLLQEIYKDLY
T9 sequence (Q13043 whole entry): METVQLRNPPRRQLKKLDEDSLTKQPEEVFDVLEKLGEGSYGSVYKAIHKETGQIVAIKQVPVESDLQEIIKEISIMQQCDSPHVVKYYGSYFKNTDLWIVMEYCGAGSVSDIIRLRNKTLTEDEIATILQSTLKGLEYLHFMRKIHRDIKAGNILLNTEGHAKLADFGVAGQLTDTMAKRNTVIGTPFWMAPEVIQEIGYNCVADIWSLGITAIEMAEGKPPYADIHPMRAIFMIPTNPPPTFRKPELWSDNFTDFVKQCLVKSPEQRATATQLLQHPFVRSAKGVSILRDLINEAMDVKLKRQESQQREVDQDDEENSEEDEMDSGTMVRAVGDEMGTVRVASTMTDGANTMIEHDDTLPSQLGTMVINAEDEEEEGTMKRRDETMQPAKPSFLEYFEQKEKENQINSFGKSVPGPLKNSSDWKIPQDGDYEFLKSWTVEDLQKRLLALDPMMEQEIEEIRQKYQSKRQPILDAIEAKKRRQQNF
GSK3β(h), sequence (P49841 whole entry): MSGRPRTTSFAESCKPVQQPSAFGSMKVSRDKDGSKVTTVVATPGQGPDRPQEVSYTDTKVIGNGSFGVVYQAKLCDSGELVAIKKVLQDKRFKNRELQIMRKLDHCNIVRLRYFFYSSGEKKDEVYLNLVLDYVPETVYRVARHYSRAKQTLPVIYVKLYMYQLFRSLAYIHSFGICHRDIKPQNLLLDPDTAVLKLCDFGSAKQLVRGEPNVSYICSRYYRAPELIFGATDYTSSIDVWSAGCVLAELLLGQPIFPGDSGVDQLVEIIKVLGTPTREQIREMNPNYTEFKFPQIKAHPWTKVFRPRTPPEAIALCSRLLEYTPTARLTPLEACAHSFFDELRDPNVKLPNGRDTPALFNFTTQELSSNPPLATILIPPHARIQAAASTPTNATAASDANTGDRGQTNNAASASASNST

For `NC(=O)c1cc(Cn2cc(-c3c(-c4ccc(Cl)cc4)nc4c(F)cc(F)cn34)nn2)ccc1Cl` [Compound 11, 2-Chloro-5-((4-(2-(4-chlorophenyl)-6,8-difluoroimidazo[1,2-a]pyridin-3-yl)-1H-1,2,3-triazol-1-yl)methyl)-benzamide], at rhesus monkey PXR (oPXR), the “activity on rhesus monkey PXR (oPXR)” value is reported as “full agonism”. For the same compound, the “CYP7A1, HMGCS2, PCK1 and MKI67 mRNA” value in data set [1] (in the presence and absence of rifampicin) was “significant downregulation”. For the same compound, in data set [1] (all donors), the “CYP2B6 mRNA” value is recorded as “may slightly upregulate”. In addition, the “CYP3A4 mRNA expression” value in data set [1] (three donors, rifampicin 10 μM, 48 h) was “suppressed the expression of CYP3A4 mRNA and attenuated its induction by rifampicin”. The “agonistic effect on PPARγ” value at PPARγ is “no agonistic effects”. In addition, the activity at 1 µM on Plk3(h) is 113%; on JAK2(h), 101%; on IGF-1R(h) it was 99%; on p70S6K(h) it was 105%; on eEF-2K(h), 112%; on SRPK1(h), 98%. For the same compound, the activity at 1 µM at GSK3β(h) was 99%; on Mnk2(h) it was 86%; at PI3 Kinase (p120g)(h) it was 102%; at DRAK1(h) it was 105%; on PKG1α(h), 85%; on MST1(h), 94%.

(Values after publication PMC12305494, “Discovery of PXR Antagonist MI891 and PXR Degrader MI1013 and Their Roles in Hepatic Gene Regulation” (Journal of Medicinal Chemistry, 2025).)
